Data from patent publication US10301630B2, “Methods and compositions for unsilencing imprinted genes” (The University of North Carolina at Chapel Hill, priority 2010, dated 2019).
Values joined by “and” are separate entries in the source; they are usually repeats but may differ in a detail not shown here. Equal entries are not always repeated. Where two headings read alike, the source gives them in different places.

Key:
[1] = test system: paternal Ube3a-YFP allele in spinal neurons; test: Intrathecal delivery, paternal Ube3a-YFP in spinal cord; type: in vivo, mouse; conditions: for unsilencing of paternal Ube3a-YFP after intrathecal injection: i.t. 5 μl, irinotecan 1000 nmol/day for 5 days, topotecan 200 nmol/day for 6 days
Method: A soft cloth is placed over the head and upper body of the animal to keep him calm. The experimenter grasps the pelvic girdle of mouse with his thumb and forefinger. Next, the experimenter traces the spinal column of the mouse with a needle. The disposable 30 gauge ½ inch needle is connected to a 50 ul Luer-hub Hamilton syringe. As long as the experimenter senses the bones of the spinal column, the angle of syringe is lowered at 45 degree to the horizontal. The experimenter inserts the needle 1 mm further to the spinal column. Following the 5 ul injection, the syringe is rotated slightly and removed. […] They are 100, 500 and 1000 nmole. Paternal Ube3a-YFP (+/Ey) mice are used throughout these experiments.
For immunocytochemistry in spinal cord, lumbosacral spinal cord (approximately L1 to S2 and inclusive of the area corresponding to intrathecal injection site) was removed from each mouse and immersion-fixed for 8 h in cold 4% paraformaldehyde/0.1M phosphate buffer (pH 7.4). After a period of cryoprotection in 30% sucrose in 0.1M phosphate buffer, each spinal cord was sectioned on a cryostat at 40 μm. Sections to be stained immediately were collected in PBS; sections to be saved for future study were placed in a PBS/ethylene glycol/glycerol solution and stored at −20° C. Every fourth section was incubated overnight in a mixture containing a chicken IgY to GFP (1:750; Ayes Labs, GFP-1020) and a mouse IgG1 to NeuN (1:250; Millipore, MAB377) and treated the following day with a cocktail containing goat anti-chicken IgY-Alexa 488 (1:200; Invitrogen, A-11039), goat anti-mouse IgG1-Alexa 568 (1:200; Invitrogen, A-21124), and DRAQ5 (1:10,000; Axxora, BOS-889-001). Immunostained sections were mounted from PBS onto SuperFrostPlus Slides (Fisher), which were then air-dried briefly, rehydrated with PBS, and coverslipped with FluoroGel (Electron Microscopy Sciences). For quantification studies, sections were imaged using a Nikon Eclipse 80i with Surveyor mosaic imaging software. For qualitative assessment, sections were imaged as maximal projections on a Zeiss LSM 510.
For cell counting in spinal cord, 14 to 18 sections per mouse in segments corresponding to the injection site were analyzed. Slices were imaged using a Nikon Eclipse 80i microscope equipped with a QimagingRetigaExi high-speed CCD camera system and Surveyor mosaic imaging software using a 10× objective. For qualitative purposes, selected sections were also imaged on a Zeiss LSM 510 confocal microscope. Cells were counted manually by individuals blind to the experimental groups from raw (unprocessed) images using ImageJ and Cellprofiler^35 software.
YFP intensity levels from confocal XYZ image stacks were measured using a semi-automated macro with ImageJ. Individual YFP-positive cells were selected by eye, the criteria being the Z plane having the largest area for each cell. Cell regions were defined by intensity thresholding or manual tracing and the average YFP intensity and percent saturation were calculated for each cell.
Following the injection, the syringe is rotated slightly and removed.

cultured neurons = test: Affymetrix GeneChip expression in cultured neurons; type: cell-based
[2] = test system: paternal Ube3a-YFP allele; test: High-content imaging of paternal Ube3a-YFP unsilencing in primary cortical neurons; type: cell-based, mouse; conditions: for EC50 / EC20 / maximal fold induction: Mus musculus; for EC20: Table 3, unsilencing the paternal allele of Ube3a-YFP in cultured neurons, 1 nM to 30 μM, read-out: Potency EC20; for unsilencing of paternal Ube3a-YFP in dose-response experiments: cultured Ube3a m+/pYFP neurons
Method: In all screening assays, primary cortical neurons from Ube3a-YFP mice are isolated from embryonic day 15.5 animals, and the genotype of animals is determined to identify mice that encode the Ube3a-YFP transgene on the paternal allele. Freshly isolated cortical neurons are seeded into 384 well plates and cultured for 7 days. At day in vitro seven, screening is performed using multiple chemical libraries and compound concentration of 10 μM in 0.2% DMSO vehicle. After 72 h of drug exposure (run in quadruplicate wells), neurons are fixed with 4% para formaldehyde and processed for immunofluorescence using an anti-GFP-Alexa 488 conjugated antibody to enhance the signal of Ube3a-YFP in neurons. For image analyses, individual wells of immunofluorescence-processed plates are imaged fro DAPI and GFP fluorescence using the BD-Pathway 855 high-content imaging microscope. Ube3a-YFP fluorescence intensities in individual neurons are determined in drug-treated wells and normalized to 0.2% DMSO-treated (i.e., vehicle control) wells using custom written macros and algorithms using NIH Image J and Arrayscan Cell Profiler software programs. These image analyses enable masking of nuclei in individual neurons and determination of Ube3a-YFP fluorescence intensity in the nuclei of individual neurons.
For these studies, DIV 7 primary neurons encoding paternal Ube3a-YFP are dose treated with hit compounds across seven orders of magnitude in full and half log molar concentrations (3 pM to 30 μM). Ube3a-YFP fluorescence intensities in living neurons are determined again by high-content imaging microscopy after 72 h treatments. The dose response results are analyzed by least squares sigmoidal dose-response curve fitting models using Graphpad Prism 5.0 (Graphpad Software, Inc.). The calculated EC50 values (potencies) and Y value top plateau (estimated efficacies or Emax) enable comparative analyses of the relative potency and efficacy of the identified compounds.
Primary cortical neurons were isolated from E13.5-16.5 Ube3a-YFP mice. Screening was performed in quadruplicate at DIV7 using multiple chemical libraries and a compound concentration of 10 μM in 0.2% DMSO vehicle. After 72 h of drug exposure, neurons were fixed with 4% paraformaldehyde in PBS for 35 min, permeabilized with 0.3% Triton X-100 in PBS on ice for 30 min, and blocked by 5% goat serum with 0.1% Triton X-100 in PBS at room temperature for 1 hr. Cells were incubated with a rabbit polyclonal antibody to GFP (1:1000, Novus Biologicals, NB600-308) at room temperature for 1 hr and then incubated with Alexa Fluor 488 goat antibody to rabbit IgG (1:200, Invitrogen, A11008) and DAPI (1:10,000, Invitrogen, D-1306) at room temperature for 30 min. Individual wells of immunofluorescence-processed plates were imaged for DAPI or Alexa 488 fluorescence using the BD Pathway 855 high-content imaging microscope with a 488 excitation/515 long pass filter. Antibody-enhanced UBE3A-YFP fluorescence intensities were determined from individual neurons in drug-treated wells and normalized to neurons in wells treated with 0.2% DMSO (vehicle control). Analyses were performed with custom macros and algorithms using NIH Image J and Arrayscan Cell Profiler software programs (Thermo Scientific/Cellomics). These image analyses enabled masking of nuclei in individual neurons and determination of UBE3A-YFP fluorescence intensities in the nuclei of individual neurons (FIG. 16).
DIV7 primary neurons from Ube3a^m+/pYFP mice were dose-treated for 72 h with topoisomerase I and II inhibitors in ten point dose-responses in full and half log molar concentrations (1 nM to 30 μM). Neurons were fixed, processed for immunofluorescence, and UBE3A-YFP fluorescence intensities were again determined by high-content imaging microscopy.

[3] = Cortical neurone, Table 1, unsilencing paternal Ube3a-YFP, cortical neurons, 72 h, read-out: EC50
[4] = Primary cortical neuron, concentration-response curves, 72 hr, n=4, mean±SEM, read-out: EC50 for unsilencing paternal Ube3a-YFP (FIG. 7)

CCc1c2c(nc3ccc(OC(=O)N4CCC(N5CCCCC5)CC4)cc13)-c1cc3c(c(=O)n1C2)COC(=O)[C@]3(O)CC [Irinotecan]
unsilencing of paternal Ube3a-YFP after intrathecal injection [1]: unsilenced the paternal Ube3a-YFP allele in spinal neurons and in DRG neurons
apoptotic pathways by microarray (cultured neurons): no evidence for drug-induced increases in apoptotic pathways
unsilencing of paternal Ube3a-YFP in the primary screen ([2]; 10 μM for 72 hours, Ube3a m+/pYFP neurons): upregulated UBE3A-YFP fluorescence
EC50 [2, 3]: 994 ± 10 nM
EC20 ([2]; Neuron, 72 h): 0.994 ± 0.013 µM
EC50 [2, 4]: 996 ± 10 nM
unsilencing of paternal Ube3a-YFP in dose-response experiments ([2]; 72 h): upregulate paternal UBE3A-YFP in a dose- and time-dependent manner

CC[C@@]1(O)C(=O)OCc2c1cc1n(c2=O)Cc2cc3c(CN(C)C)c(O)ccc3nc2-1 [Topotecan]
number of paternal UBE3A-YFP-positive cells in lumbar spinal cord ([1]; 50 nmol/5 μL i.t. once daily, 10 of 14 days): significantly increased the number of paternal UBE3A-YFP-positive cells
expression level of unsilenced paternal UBE3A-YFP versus maternal controls ([1]; i.t. 50 nmol/day for 10 of 14 days): expressed at levels comparable to maternal UBE3A-YFP controls
percentage of UBE3A-YFP+ cells that were NeuN+ ([1]; i.t. 50 nmol/day for 10 of 14 days, paternal Ube3a-YFP mice): > 93% and 93.25%
time unsilencing of Ube3a-YFP was maintained after cessation of treatment ([1]; i.t. 50 nmol/day for 10 of 14 days, spinal neurons): at least 12 weeks
persistence of unsilencing 14 days after cessation ([1]; i.t. 100 nmol/day on 10 of 14 days, 14 days washout): unsilencing of paternal Ube3a persists
unsilencing of paternal Ube3a-YFP after intrathecal injection [1]: unsilenced the paternal Ube3a-YFP allele in spinal neurons and in DRG neurons
effectiveness at unsilencing in spinal cord compared with irinotecan ([1]; i.t., FIG. 8 Panels B and C): even more effective at unsilencing paternal Ube3a in spinal cord
maximal fold induction ([2]; Cortical neurone, 72 h, read-out: Efficacy Emax (fold over control)): 2.25 ± 0.07
EC50 [2, 3]: 54 ± 1.2 nM
maximal fold induction ([2]; Neuron, 72 h, read-out: Efficacy Emax (fold over vehicle)): 2.25 ± 0.05
EC20 ([2]; Neuron, 72 h): 0.054 ± 0.0034 µM
EC50 [2, 4]: 55 ± 1.2 nM
unsilencing of paternal Ube3a-YFP in dose-response experiments ([2]; 72 h): upregulate paternal UBE3A-YFP in a dose- and time-dependent manner
relative potency versus irinotecan (FIG. 7) ([2]; unsilencing paternal Ube3a-YFP): ~20 times
relative potency versus irinotecan (Example 16) ([2]; upregulation of paternal UBE3A-YFP in cultured neurons): 20 ×
